From patent US20120208852A1, “Heterocyclic-substituted 2-acetamido-5-aryl-1,2,4-triazolones and use thereof” (BAYER PHARMA AKTIENGESELLSCHAFT, priority 2009, published 2012) come the findings set out here.

The target of one assay is T1, human V2 receptor (Homo sapiens, UniProt P30518).
T1 construct: Galpha16 (possible fusion partner; the text says either independent or a fusion gene); expressed in transfected cells; host or cells: CHO K1 (constitutively expressing modified aequorin, co-transfected with Gα16)
T1 sequence (P30518 whole entry, the tested form may be a part): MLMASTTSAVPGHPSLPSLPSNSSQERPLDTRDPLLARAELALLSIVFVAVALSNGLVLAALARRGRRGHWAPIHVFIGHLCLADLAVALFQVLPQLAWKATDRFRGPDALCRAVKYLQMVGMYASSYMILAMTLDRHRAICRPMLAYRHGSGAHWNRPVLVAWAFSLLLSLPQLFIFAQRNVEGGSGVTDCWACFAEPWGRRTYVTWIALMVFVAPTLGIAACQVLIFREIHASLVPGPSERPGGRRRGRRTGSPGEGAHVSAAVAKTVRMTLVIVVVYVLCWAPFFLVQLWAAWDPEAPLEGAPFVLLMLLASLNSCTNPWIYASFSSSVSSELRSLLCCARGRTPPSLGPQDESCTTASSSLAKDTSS
The assay can be described thus: Cellular in vitro assay for vasopressin receptor activity (aequorin luminescence), hV2. The assay is classed as cell-based. Particulars: CHO cell line transfected with the human V2 receptor and Gα16, agonist [Arg8]-vasopressin. The text has this: (§1) B-1. Cellular In Vitro Assay for Determining the Vasopressin Receptor Activity
(§2) The identification of agonists and antagonists of the V1a and V2 vasopressin receptors from humans and rats and also the quantification of the activity of the substances described here took place using recombinant cell lines. These cells derive originally from a hamster ovary epithelial cell (Chinese Hamster Ovary, CHO K1, ATCC: American Type Culture Collection, Manassas, Va. 20108, USA). The test cell lines constitutively express a modified form of the calcium-sensitive photoprotein aequorin, which, after reconstitution with the cofactor coelenterazine, emits light when there are increases in the free calcium concentration (Rizzuto R., Simpson A. W., Brini M., Pozzan T.; Nature 358 (1992) 325-327). In addition, the cells are stably transfected with the human or rat V1a or V2 receptors. In the case of the Gs-coupling V2 receptors, the cells are stably transfected with a further gene, which codes for the promiscuous Gα16 protein (Amatruda T. T., Steele D. A., Slepak V. Z., Simon M. I., Proc. Nat. Acad. Sci. USA 88 (1991), 5587-5591), either independently or as a fusion gene. The resulting vasopressin receptor test cells react to stimulation of the recombinantly expressed vasopressin receptors by intracellular release of calcium ions, which can be quantified by the resulting aequorin luminescence using a suitable luminometer (Milligan G., Marshall F., Rees S., Trends in Pharmaco. Sci. 17 (1996) 235-237).
(§3) Test procedure: On the day before the assay, the cells are plated out in culture medium (DMEM, 10% FCS, 2 mM glutamine, 10 mM HEPES) in 384-well microtiter plates and kept in a cell incubator (96% humidity, 5% v/v carbon dioxide, 37° C.). On the day of the assay, the culture medium is replaced by a Tyrode solution (140 mM sodium chloride, 5 mM potassium chloride, 1 mM magnesium chloride, 2 mM calcium chloride, 20 mM glucose, 20 mM HEPES), which additionally contains the cofactor coelenterazine (50 μM), and the microtiter plate is then incubated for a further 3-4 hours. The test substances in various concentrations are placed for 10 to 20 minutes in the wells of the microtiter plate before the agonist [Arg8]-vasopressin is added, and the resulting light signal is measured immediately in the luminometer. The IC50 values are calculated using the GraphPad PRISM computer program (Version 3.02).
(§4) The table below lists representative IC50 values for the compounds of the invention on the cell line transfected with the human V1a or V2 receptor: […]

A further assay has as its target T2, human V1a receptor (Homo sapiens, UniProt P37288).
T2 construct: expressed in transfected cells; host or cells: CHO K1 (constitutively expressing modified aequorin)
The assay is described as follows: Cellular in vitro assay for vasopressin receptor activity (aequorin luminescence), hV1a. It counts as cell-based. Particulars: CHO cell line transfected with the human V1a receptor, agonist [Arg8]-vasopressin.
Source text: as §1, §2, §3, §4

T2 sequence (P37288 whole entry): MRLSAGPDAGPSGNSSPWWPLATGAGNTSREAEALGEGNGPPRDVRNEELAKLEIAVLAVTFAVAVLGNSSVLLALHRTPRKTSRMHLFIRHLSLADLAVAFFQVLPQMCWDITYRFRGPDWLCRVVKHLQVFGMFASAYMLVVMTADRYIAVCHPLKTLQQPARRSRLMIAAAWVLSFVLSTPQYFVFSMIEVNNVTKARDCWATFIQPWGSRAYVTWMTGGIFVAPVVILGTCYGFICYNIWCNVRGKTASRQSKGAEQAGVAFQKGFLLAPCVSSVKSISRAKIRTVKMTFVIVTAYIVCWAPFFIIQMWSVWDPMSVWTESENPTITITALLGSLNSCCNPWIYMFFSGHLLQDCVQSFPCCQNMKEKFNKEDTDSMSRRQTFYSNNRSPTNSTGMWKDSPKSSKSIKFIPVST

As for `COc1cccc(C(NC(=O)Cn2nc(-c3ccc(Cl)cc3)n(C[C@H](O)C(F)(F)F)c2=O)c2cccc(C(F)(F)F)c2)n1` (single isomer, unassigned) [Example 18], the half-inhibitory concentration (IC50) is 91 nM at human V2 receptor and 32 nM at human V1a receptor.

`COc1cccc(C(NC(=O)Cn2nc(-c3ccc(Cl)cc3)n(C[C@H](O)C(F)(F)F)c2=O)c2cccc(C(F)(F)F)c2)n1` (single isomer, unassigned) [Example 19]: the IC50 worked out at 7.1 nM at human V2 receptor and 4.6 nM on human V1a receptor.

Consider `Cc1noc([C@](C)(NC(=O)Cn2nc(-c3ccc(Cl)cc3)n(C[C@H](O)C(F)(F)F)c2=O)c2cccc(C(F)(F)F)c2)n1` [Example 3, 2-{3-(4-Chlorophenyl)-5-oxo-4-[(2S)-3,3,3-trifluoro-2-hydroxypropyl]-4,5-dihydro-1H-1,2,4-triazol-1-yl}-N-{(1R)-1-(3-methyl-1,2,4-oxadiazol-5-yl)-1-[3-(trifluoro-methyl)phenyl]ethyl}acetamide], for which the IC50 at human V2 receptor came out at 3.2 nM; at human V1a receptor, 6.5 nM.

In the case of `C[C@@](NC(=O)Cn1nc(-c2ccc(Cl)cc2)n(C[C@H](O)C(F)(F)F)c1=O)(c1cccc(C(F)(F)F)c1)c1nnn[nH]1` [Example 4, 2-{3-(4-Chlorophenyl)-5-oxo-4-[(2S)-3,3,3-trifluoro-2-hydroxypropyl]-4,5-dihydro-1H-1,2,4-triazol-1-yl}-N-{(1R)-1-(1H-tetrazol-5-yl)-1-[3-(trifluoromethyl)phenyl]ethyl}acetamide], the values for the concentration for half-maximal inhibition (IC50) at human V2 receptor and on human V1a receptor were 3.3 nM and 8.3 nM, respectively.

Usually IC50 stands for the point on the concentration scale where inhibition reaches its midpoint. Higher therefore signals a need for much substance.
